Each structure is given as a SMILES string. Where only a bound is given, the exact number is not on record here.

In data set [1] the test system is DU4475 (human breast carcinoma). The experiment in a line: Cell cytotoxicity CellTiter-Glo, DU4475. The note with it: DU-4475. The class given is cell-based. Here is the method:
(§1) Cells were seeded in 96-well microplates and treated with compounds or cisplatin (as a positive control) at 9 increasing concentrations in technical triplicate. […] On day 1, 90 μL of various cell suspensions with the number of cells ranging from 5000-8000 cells/well were seeded into wells of a 96-well plate (Corning). The number of cells to be seeded was previously determined. • 2. All 96-wells plates with cells were placed in an incubator overnight at 37° C. with 5% CO2. • 3. On day 2, cells were observed under a microscope ensuring the cells treated with vehicle control were in good condition. • 4. A dilution series of the test compounds and cisplatin were prepared at 10× the final concentrations required. 10 μL/well of 10× compound solution was added to the corresponding plates. The final volume was 100 μL/well for all the plates. Final DMSO concentration was 0.1%. • 5. On day 5 (after 72 hours of incubation), 50 μL of CTG reagent was added to each well. • 6. Contents were mixed for 5 minutes on an orbital shaker to facilitate cell lysis. • 7. The plate was allowed to incubate at room temperature for 10 minutes to stabilize luminescent signals. […]
(In general: ATP-based viability assays read luminescence as a measure of living cells.)

In data set [2] the test system is RKO (human colon carcinoma). Kind of data set: Cell cytotoxicity CellTiter-Glo, RKO. Format: cell-based. Here is the method: as §1
In data set [3] the test system is NCI-H1703 (human lung squamous cell carcinoma). Kind of data set: Cell cytotoxicity CellTiter-Glo, NCI-H1703. Format: cell-based. As to the method: as §1
Data set [4] relates to HT1080 (human fibrosarcoma). The experiment in a line: Cell cytotoxicity CellTiter-Glo, HT1080. Format: cell-based. The note with it: HT-1080. Here is the method: as §1
The nature of data set [5]: Body weight in BT474 xenograft study. Format: in vivo, NOD/SCID mice. The note with it: trastuzumab or ADC Example 1 2.5 or 5 mg/kg; Example 12 2 mg/kg (Group 6). Here is the method:
During the study, body weights were measured three times weekly for all animals. Animals were given Diet Gel for the entire duration on the study.

The next data set has as its system DOHH-2 tumor cells. Kind of data set: Subcutaneous xenograft DOHH-2 lymphoma model. The note with it: intraperitoneal dosing (Example 5: 7 or 20 mg/kg; Example 12: 0.7 or 2 mg/kg), QD cycles. The class given is in vivo, CB17/SCID mice. Here is the method: The in vivo efficacy of certain Example compounds was assessed in a subcutaneous xenograft DOHH-2 Lymphoma Model using 10 female 6-8 week old CB17/SCID Mice. Each mouse was inoculated subcutaneously at the right front region with DOHH-2 tumor cells (5×10^6) in 0.1 ml of PBS mixed with matrigel (1:1 PBS:matrigel) for tumor development. The test compound administration started once the mean tumor size reached approximately 100-150 mm^3.
Compounds were administered either IP (vehicle 10 mM sodium phosphate+0.2% Tween-80 (pH7.4) or orally (vehicle 15 Na2HPO4 buffer (10 mM) (pH 4.5)+0.2% tween 80). Tumor volumes were measured in two dimensions using a caliper, and the volume expressed in mm^3 using the formula: V=(L×W×W)/2, where V is tumor volume, L is tumor length (the longest tumor dimension) and W is tumor width (the longest tumor dimension perpendicular to L).
Mice were dosed with Example 21 orally (12.5 or 25 mg/kg) once a day for 9 consecutive days (FIG. 3). Example 5 was dosed intraperitoneally (7 or 20 mg/kg) in a cycle consisting of administration QD for three days followed by a three day no-dosing period followed by QD dosing for a further three days (FIG. 4). Example 12 was dosed intraperitoneally (0.7 or 2 mg/kg) in a cycle consisting of administration QD for three days followed by a three day no-dosing period followed by QD dosing for a further three days (FIG. 5). In a separate study Example 12 was dosed at […] in a cycle consisting of administration QD for two days followed by either four or six day no-dosing period, and this cycle was repeated three times (FIG. 6).

Usually IC50 stands for the point on the concentration scale where inhibition reaches its midpoint. A low value points to greater potency in that assay. `Cc1c(CCOc2cc(Cl)ccc2-c2ccc3ncc(CCN)n3c2)c(C(=O)N(C)C)nn1C` [Comparator Compound 1, 4-(2-{2-[3-(2-aminoethyl)imidazo[1,2-a]pyridin-6-yl]-5-chlorophenoxy}ethyl)-N,N,1,5-tetramethyl-1H-pyrazole-3-carboxamide, reference compound]: the IC50 is over 1000 nM in data set [1], 96 nM in data set [2], 82 nM in data set [3] and 6.4 nM in data set [4].
Consider `CNCc1cnc2ccc(-c3ccc(F)c(F)c3OCCc3c(C(O)C(C)(C)C)nn(C)c3C)cn12` (single isomer, unassigned) [Example 12, 1-(4-(2-(2,3-difluoro-6-(3-((methylamino)methyl)imidazo[1,2-a]pyridin-6-yl)phenoxy)ethyl)-1,5-dimethyl-1H-pyrazol-3-yl)-2,2-dimethylpropan-1-ol], for which the “body weights compared to vehicle control” value in data set [5] was “decreased significantly”. In addition, the “tumour volume compared to vehicle” value in the data set on DOHH-2 tumor cells is “significant reduction in tumour volume or reduced growth in tumour volume”.

For the origin of these results see patent US12599676B2, “Cytotoxic imidazo[1,2-A]pyridine compounds and their use in therapy” (MyricX Pharma Limited, priority 2022, dated 2026).
